# Test system: 857933-349-R-J2-PDC complex spheroids, viability
# Experiment: Anticancer human tumor 857933-349-R-J2-PDC patient-derived colon adenocarcinoma cell line growth inhibition [GQUAD]
# Conditions: for IC50: curve of first compound; for viability, T/C: stronger effect = lower value
# Outline: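 Tumor cells were grown as complex spheroids with HUVEC endothelial cells and mesenchymal stem cells as stroma. G-quadruplex stabilizers were combined with targeted agents over half-log dilutions from near the clinical Cmax, or from 10 microM.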
# [1] = second compound 0.0316 µM, first compound 0.0316 µM
# [2] = second compound 0.0316 µM, first compound 0.1 µM
# [3] = second compound 0.0316 µM, first compound 0.316 µM
# [4] = second compound 0.0316 µM, first compound 1 µM
# [5] = second compound 0.0316 µM, first compound 3.16 µM
# [6] = second compound 0.0316 µM, first compound 10 µM
# [7] = second compound 0.1 µM, first compound 0.0316 µM
# [8] = second compound 0.1 µM, first compound 0.1 µM
# [9] = second compound 0.1 µM, first compound 0.316 µM
# [10] = second compound 0.1 µM, first compound 1 µM
# [11] = second compound 0.1 µM, first compound 3.16 µM
# [12] = second compound 0.1 µM, first compound 10 µM
# [13] = second compound 0.316 µM, first compound 0.0316 µM
# [14] = second compound 0.316 µM, first compound 0.1 µM
# [15] = second compound 0.316 µM, first compound 0.316 µM
# [16] = second compound 0.316 µM, first compound 1 µM
# [17] = second compound 0.316 µM, first compound 3.16 µM
# [18] = second compound 0.316 µM, first compound 10 µM
# [19] = second compound 1 µM, first compound 0.0316 µM
# [20] = second compound 1 µM, first compound 0.1 µM
# [21] = second compound 1 µM, first compound 0.316 µM
# [22] = second compound 1 µM, first compound 1 µM
# [23] = second compound 1 µM, first compound 3.16 µM
# [24] = second compound 1 µM, first compound 10 µM
# [25] = second compound 3.16 µM, first compound 0.0316 µM
# [26] = second compound 3.16 µM, first compound 0.1 µM
# [27] = second compound 3.16 µM, first compound 0.316 µM
# [28] = second compound 3.16 µM, first compound 1 µM
# [29] = second compound 3.16 µM, first compound 3.16 µM
# [30] = second compound 3.16 µM, first compound 10 µM
# [31] = second compound 10 µM, first compound 0.0316 µM
# [32] = second compound 10 µM, first compound 0.1 µM
# [33] = second compound 10 µM, first compound 0.316 µM
# [34] = second compound 10 µM, first compound 1 µM
# [35] = second compound 10 µM, first compound 3.16 µM
# [36] = second compound 10 µM, first compound 10 µM
# 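Note: spheroids exposed to compounds for one week before readout.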
# 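Throughout, for viability, T/C: percent viability relative to vehicle DMSO wells taken as 100%.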
smiles,measurement,setting,value
C#Cc1c(F)ccc2cc(O)cc(-c3ncc4c(N5CC6CCC(C5)N6)nc(OCC56CCCN5CC(F)C6)nc4c3F)c12 (stereo unspecified) + Cc1[nH]c2ccc(F)cc2c1-c1nc2c3cccnc3c3ncccc3c2[nH]1,IC50,second compound 0.0316 µM,> 10000 nM
same,IC50,second compound 0.1 µM,> 10000 nM
same,IC50,second compound 0.316 µM,> 10000 nM
same,IC50,second compound 1 µM,> 10000 nM
same,IC50,second compound 3.16 µM,> 10000 nM
same,IC50,second compound 10 µM,> 10000 nM
same,"viability, T/C",[1],109%
same,"viability, T/C",[2],96.3%
same,"viability, T/C",[3],91.9%
same,"viability, T/C",[4],80.7%
same,"viability, T/C",[5],74.3%
same,"viability, T/C",[6],63.9%
same,"viability, T/C",[7],104%
same,"viability, T/C",[8],98.5%
same,"viability, T/C",[9],89.2%
same,"viability, T/C",[10],85.2%
same,"viability, T/C",[11],71.3%
same,"viability, T/C",[12],66.7%
same,"viability, T/C",[13],101%
same,"viability, T/C",[14],90.8%
same,"viability, T/C",[15],86.3%
same,"viability, T/C",[16],78.4%
same,"viability, T/C",[17],81.7%
same,"viability, T/C",[18],70.1%
same,"viability, T/C",[19],98.2%
same,"viability, T/C",[20],87.5%
same,"viability, T/C",[21],93.3%
same,"viability, T/C",[22],78.8%
same,"viability, T/C",[23],86.7%
same,"viability, T/C",[24],75.7%
same,"viability, T/C",[25],94.3%
same,"viability, T/C",[26],83.2%
same,"viability, T/C",[27],81.6%
same,"viability, T/C",[28],73.3%
same,"viability, T/C",[29],80.8%
same,"viability, T/C",[30],74.3%
same,"viability, T/C",[31],90.4%
same,"viability, T/C",[32],93.7%
same,"viability, T/C",[33],87%
same,"viability, T/C",[34],79.9%
same,"viability, T/C",[35],78.8%
same,"viability, T/C",[36],66.8%
CC1COCCN1c1cc(C2(S(C)(=N)=O)CC2)nc(-c2ccnc3[nH]ccc23)n1 (stereo unspecified) + Cc1cnc(CNC(=O)c2c(=O)c3ccc(N4CCCN(C)CC4)nc3n3c2sc2ccccc23)cn1,IC50,second compound 0.0316 µM,800 nM
same,IC50,second compound 0.1 µM,327 nM
same,IC50,second compound 0.316 µM,< 31.6 nM
same,IC50,second compound 1 µM,< 31.6 nM
same,IC50,second compound 3.16 µM,< 31.6 nM
same,IC50,second compound 10 µM,< 31.6 nM
same,"viability, T/C",[1],82%
same,"viability, T/C",[2],75.7%
same,"viability, T/C",[3],72.3%
same,"viability, T/C",[4],43.8%
same,"viability, T/C",[5],42.1%
same,"viability, T/C",[6],31.9%
same,"viability, T/C",[7],56.5%
same,"viability, T/C",[8],68.6%
same,"viability, T/C",[9],45.8%
same,"viability, T/C",[10],39.1%
same,"viability, T/C",[11],34.4%
same,"viability, T/C",[12],26.7%
same,"viability, T/C",[13],26.8%
same,"viability, T/C",[14],31.2%
same,"viability, T/C",[15],20.8%
same,"viability, T/C",[16],13.4%
same,"viability, T/C",[17],10.6%
same,"viability, T/C",[18],10%
same,"viability, T/C",[19],5.52%
same,"viability, T/C",[20],6.04%
same,"viability, T/C",[21],4.55%
same,"viability, T/C",[22],3.48%
same,"viability, T/C",[23],3.6%
same,"viability, T/C",[24],4.17%
same,"viability, T/C",[25],2.4%
same,"viability, T/C",[26],2.9%
same,"viability, T/C",[27],2.49%
same,"viability, T/C",[28],1.88%
same,"viability, T/C",[29],1.99%
same,"viability, T/C",[30],2.82%
same,"viability, T/C",[31],1.11%
same,"viability, T/C",[32],1.51%
same,"viability, T/C",[33],1.22%
same,"viability, T/C",[34],1.75%
same,"viability, T/C",[35],1.64%
same,"viability, T/C",[36],2.19%
Cc1cccc(N(C)C(=O)C2C(O)CCN2c2nc(C)cc(C(F)(F)F)c2C#N)c1 (stereo unspecified) + Cc1cnc(CNC(=O)c2c(=O)c3ccc(N4CCCN(C)CC4)nc3n3c2sc2ccccc23)cn1,IC50,second compound 0.0316 µM,> 10000 nM
same,IC50,second compound 0.1 µM,> 10000 nM
same,IC50,second compound 0.316 µM,< 31.6 nM
same,IC50,second compound 1 µM,< 31.6 nM
same,IC50,second compound 3.16 µM,< 31.6 nM
same,IC50,second compound 10 µM,< 31.6 nM
same,"viability, T/C",[1],92%
same,"viability, T/C",[2],88.2%
same,"viability, T/C",[3],94.4%
same,"viability, T/C",[4],82.3%
same,"viability, T/C",[5],95.1%
same,"viability, T/C",[6],77.6%
same,"viability, T/C",[7],70.8%
same,"viability, T/C",[8],73.3%
same,"viability, T/C",[9],62.9%
same,"viability, T/C",[10],58.8%
same,"viability, T/C",[11],74.5%
same,"viability, T/C",[12],64.1%
same,"viability, T/C",[13],24.6%
same,"viability, T/C",[14],29.8%
same,"viability, T/C",[15],27.1%
same,"viability, T/C",[16],23.4%
same,"viability, T/C",[17],24.2%
same,"viability, T/C",[18],22.7%
same,"viability, T/C",[19],4.6%
same,"viability, T/C",[20],7.14%
same,"viability, T/C",[21],5.51%
same,"viability, T/C",[22],4.02%
same,"viability, T/C",[23],4.11%
same,"viability, T/C",[24],3.8%
same,"viability, T/C",[25],2.72%
same,"viability, T/C",[26],2.17%
same,"viability, T/C",[27],1.95%
same,"viability, T/C",[28],2.02%
same,"viability, T/C",[29],2.19%
same,"viability, T/C",[30],1.89%
same,"viability, T/C",[31],2.6%
same,"viability, T/C",[32],2.28%
same,"viability, T/C",[33],2.23%
same,"viability, T/C",[34],1.9%
same,"viability, T/C",[35],1.89%
same,"viability, T/C",[36],0.69%

# — PubChem BioAssay AID2060491 (Molecular Pharmacology Branch, DTP, NCI, 2025)
